Source: PubChem BioAssay AID493102 (Broad Institute, 2011)

System: SK-MEL-5 TRPM1-promoter luciferase reporter, 24 h
Assay: reducers of TRPM1 reporter luminescence, concentration series – cell-based, SK-MEL-5, cherry-picked, set 4, MITF inhibitor project, dose response (AID 493102);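 note: actives lower the luciferase signal so the potency reflects inhibition of reporter expression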

| SMILES | AC50 |
| --- | --- |
| O=C(c1ccc([N+](=O)[O-])s1)N1CCN(c2ccccn2)CC1 | 12.2 µM |
| CS(=O)(=O)N1CCN(c2ccc(NC(=O)c3ccc([N+](=O)[O-])o3)cc2)CC1 | 4.92 µM |
| Cc1ccc(NC(=O)C2CCN(S(=O)(=O)c3c(C)noc3/C=C/c3ccco3)CC2)nc1 | 5.56 µM |
| CC(C)N1C/C(=C/c2cccnc2)C(=O)/C(=C/c2cccnc2)C1 | 14.2 µM |
| COc1cc2c(c(OC)c1OC)-c1ccc(N(C)CC(OC)OC)c(=O)cc1[C@@H](NC(C)=O)CC2 | 2.04 µM |
| COc1ccc(NC(=O)CCC(=O)N/N=C/c2ccc([N+](=O)[O-])s2)cc1 | 7.62 µM |
| COc1ccc2nc(N3CCN(C(=O)c4ccc([N+](=O)[O-])o4)CC3)sc2c1 | 5.81 µM |
| COc1cc2c(cc1OC)C(C)N(S(=O)(=O)c1cnc(Cl)c(Cl)c1)CC2 (stereo unspecified) | 12.1 µM |
| CC(C)c1oc(=O)cc2c1[C@@H](O)[C@H]1OC(=O)[C@@]3(C)C[C@@H](O)[C@@H](O)[C@@]2(C)C13 (stereo partly specified) | 1.63 µM |
| Cc1ccc(-c2nc(C(=O)NCCCN(C)C)cc3c2[nH]c2ccccc23)cc1 | 11.2 µM |
| CC(=O)Nc1sc(C)c(C)c1C(=O)OCC(=O)N(CC(C)C)c1c(N)n(Cc2ccccc2)c(=O)[nH]c1=O | 5.29 µM |
| CC(C)Oc1ccc(C(CCN)C2CCCCC2)cc1 (stereo unspecified) | 9.99 µM |
| O=C1NC(=S)NC(=O)C1=Cc1cccc2cc3ccccc3cc12 | 4.81 µM |
| CCN1CCN(C2=C(NS(=O)(=O)c3ccc(C)cc3)C(=O)c3ccccc3C2=O)CC1 | 4.18 µM |
| O=C(c1ccccc1)c1cc(Cl)ccc1N1C(=O)C=CC1=O | 11.9 µM |
| O=C1Nc2cc(C(=O)NCCN3CCCCCC3)ccc2S/C1=C\c1ccccc1 | 9.78 µM |
| CCc1ccccc1NC(=O)CN(C)C(=O)Cn1ncc(Cl)c(Cl)c1=O | 11 µM |
| COc1ccc(-n2cc(-c3ccc(C)cc3)[n+]3c2SCC3)cc1 | 2.91 µM |
| Cc1nc(Sc2nnnn2C)c2c3c(sc2n1)CCC3 | 4.98 µM |

| SMILES | AC50 |
| --- | --- |
| Cc1ccc(C(=O)Nc2cnc3ccccc3c2)cc1 | 1.15 µM |
| CN(C)S(=O)(=O)c1cccc(NC(=O)CSc2nc3c(cc2C#N)C(=O)CC(C)(C)C3)c1 | 9.02 µM |
| COc1ccc(N(C(=O)CCl)C(C(=O)NC2CCCCC2)c2cccnc2)cc1 (stereo unspecified) | 5.87 µM |
| CCc1ccc(-c2cc(C(=O)Nn3cnnc3)c3ccccc3n2)cc1 | 12.5 µM |
| CCCN(CCC)C1=CC(=[N+]2CCCC2)CC(C)(C)C1 | 2.02 µM |
| CCOc1ccc(-c2noc(CCC(=O)O)n2)cc1 | 2.61 µM |
| CC(C)(C)C(=O)/C(=C/c1ccncc1)n1cncn1 | 6.63 µM |
| O=C(Nc1ccc(Cl)c(S(=O)(=O)N2CCOCC2)c1)c1ccc(OCC2CCCO2)cc1 (stereo unspecified) | 3.26 µM |
| O=C(N/N=C/c1ccc([N+](=O)[O-])o1)c1ccc(O)cc1 | 5.2 µM |
| CCN(CC)CCC(=O)N1C/C(=C/c2ccccc2)C(=O)/C(=C\c2ccccc2)C1 | 4.72 µM |
| COCCNC(=O)/C(C#N)=C/c1cccc(/C=C(\C#N)C(=O)NCCOC)c1 | 12.7 µM |
| CS(=O)(=O)c1ccc(S(=O)CC(=O)OCc2ccccc2)c([N+](=O)[O-])c1 (stereo unspecified) | 5.46 µM |
| O=C(NCc1ccccc1)C(=O)Nc1cccc(C(=O)O)c1 | 4.85 µM |
| O=C(Cn1ncc(Cl)c(Cl)c1=O)Nc1ccc2c(c1)OCO2 | 13.2 µM |
| C=CCN1C(=O)NC(=O)/C(=C/C=C/c2ccccc2)C1=O | 5.94 µM |
| Cc1ccc(NCC(=O)N/N=C\c2ccc([N+](=O)[O-])o2)cc1 | 19.1 µM |
| CC(C)C(=O)N1CCN(c2ccc(NC(=O)c3ccc([N+](=O)[O-])o3)cc2Cl)CC1 | 7.05 µM |
| COc1cccc(N2CCN(C(=O)c3ccc(CS(=O)c4ccccc4Cl)o3)CC2)c1 (stereo unspecified) | 0.894 µM |
| CCN1CCN(c2ccc(NC(=O)c3ccc([N+](=O)[O-])o3)cc2Cl)CC1 | 9.54 µM |

| SMILES | AC50 |
| --- | --- |
| O=[N+]([O-])c1ccc(Sc2cc[n+]([O-])c3ccccc23)c([N+](=O)[O-])c1 | 5.92 µM |
| Cc1ccc2nc(C)cc(Nc3ccc([N+](=O)[O-])cc3)c2c1 | 5.88 µM |
| N#Cc1c(NC(=O)CSc2ncn[nH]2)sc2c1CCCCC2 | 0.371 µM |
| N#Cc1c(NC(=O)CSc2ncn[nH]2)sc2c1CCCC2 | 0.599 µM |
| Cc1onc(-c2ccccc2)c1C(=O)N/N=C/c1ccc([N+](=O)[O-])s1 | 5.35 µM |
| CC(=NNC(=S)N1CCN(c2ccccn2)CC1)c1nccs1 | 0.681 µM |
| O=C(Nc1ccccc1)NN(C(=O)CCl)c1ccccc1 | 8.5 µM |
| C=C1C(=O)O[C@@]23[C@H]1CC[C@@H](C)[C@@H]2CC[C@@]1(C)O[C@@H]31 | 5.22 µM |
| COc1ccc(-n2ncc3c(N4CCCCC4)ncnc32)cc1 | 1.48 µM |
| O=[N+]([O-])c1ccc(/C=N/N=C/c2ccc([N+](=O)[O-])o2)o1 | 9.36 µM |
| Clc1ccc(-c2c[n+](Cc3cccc(Cl)c3)c3n2CCC3)cc1 | 8.77 µM |
| N=c1n(CCN2CCCC2)c2ccccc2n1CC(O)c1ccc(Cl)c(Cl)c1 (stereo unspecified) | 11.8 µM |
| CC(/C=N/NC(=O)c1cc(-c2ccncc2)nc2ccccc12)=C\c1ccco1 | 2.4 µM |
| CCN1CCCC1CNC(=O)c1ccc2c(c1)NC(=O)/C(=C\c1ccc(OC)c(OC)c1)S2 (stereo unspecified) | 13.8 µM |
| Cn1c(SCC(=O)N/N=C/c2ccc([N+](=O)[O-])s2)nnc1-c1ccccc1 | 4.28 µM |
| NNC(=O)c1cc2ccccc2cc1O | 24 µM |
| COc1ccc(C(=O)/C=C/C(=O)N(CC(=O)NC2CCCCC2)Cc2ccccc2OC)c(O)c1 | 4.04 µM |
| O=C(CCl)Nc1ccc(-c2ccccc2)cc1 | 7.3 µM |
